# Experimental data from patent US20230365959A1, “METHOD FOR IMPROVING THE STABILITY OF A COMPOSITION COMPRISING A FLAVIN-DEPENDENT LACTATE DEHYDROGENASE” (KIKKOMAN CORPORATION, priority 2020, published 2023).
# Experiments:
# Format in all cases: biochemical
# [1] = test system: lactate dehydrogenase from Ogataea parapolymorpha (OgLDH); experiment: Thermal stability of OgLDH (residual activity ratio after heat treatment); details: OgLDH 2 U/mL; compound 300 mM; potassium phosphate buffer pH 7.5; 50°C for 15 minutes
# Procedure: (§1) The thermal stability of LDH was evaluated by heating LDH at a given temperature for a given time and comparing the activities before and after heating. […] Further, LDH activity of an LDH solution allowed to stand still on ice without any heat treatment was measured. Based on the activity of this case without any heat treatment taken as 100, the activities of LDH solutions after heat treatment were calculated to determine the residual activity ratio (%). More specifically, the residual activity ratio (%) can be obtained by measuring LDH activity value (a) of a solution before heat treatment or before long-term storage, and LDH activity value (b) of a solution after heat treatment or after long-term storage, and then, calculating ((b)/(a)×100).
# (§2) The activity of LDH was determined in accordance with the following procedure. […] Subsequently, a 30 mM PMS solution (50 μL) and an enzyme sample solution (50 μL) were added to the mixture to initiate a reaction. Absorbance at 520 nm was measured at the time of initiation of the reaction and over time and, the degree of reduction (ΔA520) in absorbance per minute as the enzymatic reaction progresses was obtained and LDH activity was calculated in accordance with the following Mathematical formula 2. Here, LDH activity is expressed by an enzyme (LDH) unit, and 1U is defined as the amount of the enzyme that can reduce 1 μmol DCIP per minute at 37° C. in the presence of 10 mM L-lactate.
# Stability evaluation tests were conducted to check the improvement effect of malic acid on the stability of various LDHs. […] Each of these diluted enzyme solutions (a mixture of an enzyme and L-malic acid, LDH concentration: 2 U/mL, L-malic acid concentration: 300 mM) was heated in accordance with the thermal-stability evaluation method described in Section 4. More specifically, PkLDH was treated at 55° C., whereas, CaLDH and OgLDH were treated at 50° C. for 15 minutes and then the residual activity ratio (%) was calculated, based on the activity before heating taken as 100. As a comparative example, a sample without adding any L-malic acid in the enzyme diluent was subjected to the same experiment, and the ratio of residual activity in both cases were compared.
# (§3) Using the purified OgLDH preparation obtained above, the ratios of remaining activities (%) in the presence and absence of a LDH stabilizer were compared in accordance with the LDH thermal stability evaluation method described in Section 4. In this manner, a stabilizer was searched.
# The pH of the LDH solution was adjusted to be 7.5 after each of the compounds was added. Heat treatment was carried out at 50° C. for 15 minutes.
# [2] = target: T1, lactate dehydrogenase from Saccharomyces cereviciae (ScLDH) (Saccharomyces cerevisiae, UniProt P00175); experiment: Thermal stability of ScLDH (supernatant of crushed bacterial cells); details: ScLDH 2 U/mL; compound 300 mM; potassium phosphate buffer pH 7.5; 40°C for 15 minutes
# T1 construct: made in house; host or cells: Escherichia coli BL21 (pKK223-3-ScLDH); unpurified supernatant of crushed cells
# T1 sequence (P00175 86-591): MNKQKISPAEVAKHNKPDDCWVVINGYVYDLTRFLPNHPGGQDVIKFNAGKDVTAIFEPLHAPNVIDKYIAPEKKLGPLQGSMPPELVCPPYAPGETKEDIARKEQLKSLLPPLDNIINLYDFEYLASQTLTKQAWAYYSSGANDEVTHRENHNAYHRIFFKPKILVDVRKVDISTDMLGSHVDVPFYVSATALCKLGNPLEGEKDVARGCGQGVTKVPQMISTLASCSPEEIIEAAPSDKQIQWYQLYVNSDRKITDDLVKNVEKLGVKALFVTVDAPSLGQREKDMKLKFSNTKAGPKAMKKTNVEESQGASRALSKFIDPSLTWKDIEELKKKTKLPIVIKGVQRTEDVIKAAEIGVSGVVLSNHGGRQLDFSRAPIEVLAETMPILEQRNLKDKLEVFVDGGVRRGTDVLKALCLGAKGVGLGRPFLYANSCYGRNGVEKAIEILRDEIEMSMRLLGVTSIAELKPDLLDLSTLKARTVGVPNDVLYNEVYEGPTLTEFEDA
# Procedure: as §1, §2
# as §3, with “supernatant of a solution comprising crushed ScLDH bacterial cells” for “purified OgLDH preparation”
# The pH of the LDH solution was adjusted to be 7.5 after each of the compounds was added. Heat treatment was carried out at 40° C. for 15 minutes.
# [3] = test system: lactate dehydrogenase from Pichia kudriavzevii (PkLDH); experiment: Thermal stability of PkLDH in 150 mM HEPES buffer; details: PkLDH 2 U/mL; 150 mM HEPES buffer pH 7.5; added compound 350 mM; 55°C for 15 minutes
# Procedure: as §1
# as §2, with “Here, LDH activity is expressed by an enzyme (LDH) unit, and 1U is defined as the amount of the enzyme that can reduce 1 μmol DCIP per minute at 37° C. in the presence of 10 mM L-lactate.” left out
# [4] = test system: lactate dehydrogenase from Pichia kudriavzevii (PkLDH); experiment: Chronoamperometry with printed electrode to which PkLDH plus stabilizer was applied and dried (2 mM mPMS/PBS); details: added compound 50 mM, LDH 1 U dried at 40°C for 60 minutes, +200 mV
# Procedure: An enzyme electrode was prepared using the purified PkLDH preparation obtained above and chronoamperometry was carried out. Each of the compounds was added to an enzyme solution in advance and tested whether or not a stabilizing effect of the enzyme during a drying step was exerted. LDH (1 U) solutions comprising compounds in a concentration (0.2% (w/v), 2% (w/v) and 50 mM, respectively) as described in Table 8 were each applied to a screen-printed carbon electrode C110 (manufactured by Metrohm-Dropsens) in an amount of 4 μL and dried at 40° C. for 60 minutes. The same procedure was repeated using an LDH solution without adding any one of the compounds. Each of the electrodes prepared was connected to ALS electrochemical analyzer 814D (manufactured by BAS) using a dedicated connector (DRP-CAC, manufactured by Drop Sense). Subsequently, 100 μL of a 2 mM mPMS/PBS solution was added dropwise to dissolve the dried LDH. The applied voltage was +200 mV (vs Ag/Ag+). An L-sodium lactate solution was added and a response current value 5 seconds after initiation of measurement was recorded. […] Then, an L-sodium lactate solution was added such that the final concentration thereof would be 2 to 10 mM, and a response current value 5 seconds after initiation of measurement was recorded.
smiles,measurement,setting,value
O=C([O-])CC(=O)[O-].[Na+].[Na+] [disodium malonate],LDH stability improving effect,[1],96%
same,stability improving effect on ScLDH,[2],26%
same,Residual activity ratio (%),[3],101%
same,"Current value 5 seconds later (μA), 0 mM lactate",[4]; 0 mM lactate,0.21 μA
same,"Current value 5 seconds later (μA), 2 mM lactate",[4]; 2 mM lactate,61.8 μA
